ChEMBL document CHEMBL5620367, “Discovery of new tetrahydroisoquinolines as potent and selective LSD1 inhibitors for the treatment of MLL-rearranged leukemia” (Eur J Med Chem, 2023)
The source made the active and inactive calls. The calls are words filed in the database; no cut-off is given here.

Legend:
MV4-11 [1] = assay: Antitumor activity against human MV4-11 cells xenografted in NOD-SCID mouse assessed as decrease in leukemic cells in blood at 50 mg/kg, sc measured after 33 days relative to control; type: functional; set-up: scale not given: the % may be the effect or the level left; conditions: time 33 day
MOLM-13 [2] = assay: Induction of apoptosis in human MOLM-13 cells assessed as viable cells at 100 uM incubated for 3 days by Annexin V staining based flow cytometry (reference value: 90.54 %); type: functional; conditions: MOLM-13, 72 h, time 3 day, read-out: Activity
MOLM-13 [3] = assay: Induction of cell differentiation in human MOLM-13 cells assessed as CD11b level at 10 uM incubated for 3 days by Annexin V staining based flow cytometry (reference value: 13.77 %); type: functional; conditions: time 3 day
MV4-11 [4] = assay: Anti-cancer activity against human MV4-11 cells assessed as reduction in Meis1 mRNA level upto 100 uM by qRT-PCR analysis; type: functional, cell-based
MV4-11 [5] = assay: Antitumor activity against human MV4-11 cells xenografted in NOD-SCID mouse assessed as decrease in leukemic cells in blood at 78.7 mg/kg, sc measured after 33 days relative to control; type: functional; set-up: scale not given: the % may be the effect or the level left; conditions: time 33 day
MV4-11 [6] = assay: Induction of cell differentiation in human MV4-11 cells assessed as increase in CD14 level upto 100 uM incubated for 3 days by Annexin V staining based flow cytometry; type: functional; conditions: time 3.0 day
MOLM-13 [7] = assay: Induction of cell differentiation in human MOLM-13 cells assessed as CD11b level at 30 uM incubated for 3 days by Annexin V staining based flow cytometry (reference value: 13.77 %); type: functional; conditions: time 3 day
MOLM-13 [8] = assay: Induction of cell differentiation in human MOLM-13 cells assessed as increase in CD14 level upto 100 uM incubated for 3 days by Annexin V staining based flow cytometry; type: functional; conditions: time 3.0 day
MOLM-13 [9] = assay: Induction of apoptosis in human MOLM-13 cells assessed as necrotic cells at 100 uM incubated for 3 days by Annexin V staining based flow cytometry (reference value: 1.23 %); type: functional; conditions: time 3 day
MOLM-13 [10] = assay: Induction of apoptosis in human MOLM-13 cells assessed as necrotic cells at 30 uM incubated for 3 days by Annexin V staining based flow cytometry (reference value: 1.23 %); type: functional; conditions: time 3 day
MOLM-13 [11] = assay: Anti-cancer activity against human MOLM-13 cells assessed as reduction in HoxA9 mRNA level upto 100 uM by qRT-PCR analysis relative to control; type: functional; set-up: scale not given: the % may be the effect or the level left; conditions: up to 100 µM
[12] = Toxicity in NOD-SCID mouse xenografted with human MV4-11 cells assessed as change in fur morphology at 50 to 78.7 mg/kg, sc measured after 33 days; type: organism-based; conditions: in vivo, 792 h, dose 50-78.7 mg/kg, time 33 day
MV4-11 [13] = assay: Induction of apoptosis in human MV4-11 cells assessed as necrotic cells at 30 uM incubated for 3 days by Annexin V staining based flow cytometry (reference value: 2.45 %); type: functional; conditions: time 3 day
MOLM-13 [14] = assay: Induction of apoptosis in human MOLM-13 cells assessed as early apoptotic cells at 10 uM incubated for 3 days by Annexin V staining based flow cytometry (reference value: 4.94 %); type: functional; conditions: time 3 day
MOLM-13 [15] = assay: Induction of apoptosis in human MOLM-13 cells assessed as late apoptotic cells at 100 uM incubated for 3 days by Annexin V staining based flow cytometry (reference value: 3.29 %); type: functional; conditions: time 3 day
MV4-11 [16] = assay: Antitumor activity against human MV4-11 cells xenografted in NOD-SCID mouse assessed as decrease in leukemic cells in spleen at 78.7 mg/kg, sc measured after 33 days relative to control; type: functional; set-up: scale not given: the % may be the effect or the level left; conditions: time 33 day
MV4-11 [17] = assay: Induction of apoptosis in human MV4-11 cells assessed as necrotic cells at 100 uM incubated for 3 days by Annexin V staining based flow cytometry (reference value: 2.45 %); type: functional; conditions: time 3 day
MV4-11 [18] = assay: Antitumor activity against human MV4-11 cells xenografted in NOD-SCID mouse assessed as increase in RBC at 50 to 78.7 mg/kg, sc measured after 33 days; type: functional, organism-based; conditions: dose 50-78.7 mg/kg, time 33.0 day
MV4-11 [19] = assay: Antitumor activity against human MV4-11 cells xenografted in NOD-SCID mouse assessed as decrease in leukemic cells in spleen at 50 mg/kg, sc measured after 33 days relative to control; type: functional; set-up: scale not given: the % may be the effect or the level left; conditions: time 33 day
MOLM-13 [20] = assay: Induction of apoptosis in human MOLM-13 cells assessed as early apoptotic cells at 30 uM incubated for 3 days by Annexin V staining based flow cytometry (reference value: 4.94 %); type: functional; conditions: time 3 day
MOLM-13 [21] = assay: Induction of apoptosis in human MOLM-13 cells assessed as early apoptotic cells at 100 uM incubated for 3 days by Annexin V staining based flow cytometry (reference value: 4.94 %); type: functional; conditions: time 3 day
MV4-11 [22] = assay: Anti-cancer activity against human MV4-11 cells assessed as reduction in HoxA9 mRNA level upto 100 uM by qRT-PCR analysis; type: functional, cell-based
MV4-11 [23] = assay: Induction of apoptosis in human MV4-11 cells assessed as necrotic cells at 10 uM incubated for 3 days by Annexin V staining based flow cytometry (reference value: 2.45 %); type: functional; conditions: time 3 day
MV4-11 [24] = assay: Induction of apoptosis in human MV4-11 cells assessed as late apoptotic cells at 10 uM incubated for 3 days by Annexin V staining based flow cytometry (reference value: 7.29 %); type: functional; conditions: time 3 day
MV4-11 [25] = assay: Induction of apoptosis in human MV4-11 cells assessed as early apoptotic cells at 10 uM incubated for 3 days by Annexin V staining based flow cytometry (reference value: […] %); type: functional; conditions: time 3 day
MV4-11 [26] = assay: Antitumor activity against human MV4-11 cells xenografted in NOD-SCID mouse assessed as increase in hemoglobin level at 50 to 78.7 mg/kg, sc measured after 33 days; type: functional, organism-based; conditions: dose 50-78.7 mg/kg, time 33.0 day
MV4-11 [27] = assay: Induction of cell differentiation in human MV4-11 cells assessed as CD11b level at 30 uM incubated for 3 days by Annexin V staining based flow cytometry (reference value: 8.58 %); type: functional; conditions: time 3 day
MOLM-13 [28] = assay: Induction of apoptosis in human MOLM-13 cells assessed as increase in p53 level upto 100 uM incubated for 3 days by Western blot analysis; type: functional, cell-based; conditions: time 3.0 day
MOLM-13 [29] = assay: Induction of apoptosis in human MOLM-13 cells assessed as late apoptotic cells at 10 uM incubated for 3 days by Annexin V staining based flow cytometry (reference value: 3.29 %); type: functional; conditions: time 3 day
MOLM-13 [30] = assay: Induction of cell differentiation in human MOLM-13 cells assessed as CD11b level at 100 uM incubated for 3 days by Annexin V staining based flow cytometry (reference value: 13.77 %); type: functional; conditions: time 3 day
MV4-11 [31] = assay: Induction of apoptosis in human MV4-11 cells assessed as late apoptotic cells at 100 uM incubated for 3 days by Annexin V staining based flow cytometry (reference value: 7.29 %); type: functional; conditions: time 3 day
MV4-11 [32] = assay: Induction of apoptosis in human MV4-11 cells assessed as increase in p53 level upto 100 uM incubated for 3 days by Western blot analysis; type: functional, cell-based; conditions: time 3.0 day
[33] = Toxicity in NOD-SCID mouse xenografted with human MV4-11 cells assessed as body weight reduction at 50 to 78.7 mg/kg, sc measured after 33 days; type: organism-based; set-up: scale not given: the % may be the effect or the level left; conditions: in vivo, 792 h, dose 50-78.7 mg/kg, time 33 day
MOLM-13 [34] = assay: Induction of apoptosis in human MOLM-13 cells assessed as late apoptotic cells at 30 uM incubated for 3 days by Annexin V staining based flow cytometry (reference value: 3.29 %); type: functional; conditions: time 3 day

O=C(O)C(F)(F)F.O=[N+]([O-])c1ccc(C2NCCc3cc(O)c(O)cc32)cc1 (centres undefined)
Activity (MV4-11 [1]): 35% | viability at 100 µM (MOLM-13 [2]): 56% | Activity (MOLM-13 [3]): 29.35% | Activity (MV4-11 [4]): Active | Activity (MV4-11 [5]): 81% | Activity (MV4-11 [6]): Active | Activity (MOLM-13 [7]): 90.6% | Activity (MOLM-13 [8]): Active | Activity (MOLM-13 [9]): 16.41% | Activity (MOLM-13 [10]): 14.95% | Activity (MOLM-13 [11]): ~70% | Activity [12]: Toxic | Activity (MV4-11 [13]): 6.36% | Activity (MOLM-13 [14]): 7.17% | Activity (MOLM-13 [15]): 18.07% | Activity (MV4-11 [16]): 87% | Activity (MV4-11 [17]): 15.9% | Activity (MV4-11 [18]): Active | Activity (MV4-11 [19]): 32% | Activity (MOLM-13 [20]): 7.55% | Activity (MOLM-13 [21]): 9.46% | Activity (MV4-11 [22]): Active | Activity (MV4-11 [23]): 4.05% | Activity (MV4-11 [24]): 22.73% | Activity (MV4-11 [25]): 7.06% | Activity (MV4-11 [26]): Active | Activity (MV4-11 [27]): 34.78% | Activity (MOLM-13 [28]): Active | Activity (MOLM-13 [29]): 9.88% | Activity (MOLM-13 [30]): 93.75% | Activity (MV4-11 [31]): 32.33% | Activity (MV4-11 [32]): Active | Activity [33]: > 20% | Activity (MOLM-13 [34]): 15.99%
